Reference: patent publication US11661426B2, “Imidazole-containing inhibitors of ALK2 kinase” (BioCryst Pharmaceuticals, Inc., priority 2017, dated 2023)
pIC50: −log10 of the molar value.

Target: ALK2 (Homo sapiens (Human), UniProt Q04771)
Test: ALK2 inhibition, LanthaScreen Eu Kinase Binding Assay (ThermoFisher Scientific / Life Technologies)
Conditions: read-out: Measured Ki (IC50) Value for Compounds: IC50
Procedure: Biochemical assays to measure the inhibitory effects of the compounds were performed by ThermoFisher Scientific (Life Technologies). ALK2 inhibition was tested using LanthaScreen™ Eu Kinase Binding Assay screening protocol.

ALK2, sequence (Q04771 21-509): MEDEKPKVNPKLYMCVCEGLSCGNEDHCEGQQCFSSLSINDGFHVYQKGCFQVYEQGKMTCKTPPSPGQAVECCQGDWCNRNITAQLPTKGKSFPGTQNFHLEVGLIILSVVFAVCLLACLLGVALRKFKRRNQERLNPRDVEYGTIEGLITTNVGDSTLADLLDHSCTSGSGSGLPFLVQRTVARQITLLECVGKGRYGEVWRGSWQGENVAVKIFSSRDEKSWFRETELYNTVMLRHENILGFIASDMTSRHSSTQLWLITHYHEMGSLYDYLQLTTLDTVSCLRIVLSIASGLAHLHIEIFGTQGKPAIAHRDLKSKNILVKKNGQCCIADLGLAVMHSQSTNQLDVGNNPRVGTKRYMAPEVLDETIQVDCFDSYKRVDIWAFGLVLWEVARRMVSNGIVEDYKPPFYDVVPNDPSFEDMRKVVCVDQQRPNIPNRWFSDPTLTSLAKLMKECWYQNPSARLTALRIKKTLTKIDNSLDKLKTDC

| SMILES | pIC50 |
| --- | --- |
| COc1cc(-n2cnc(Nc3nc(N4CCC[C@H]4C(N)=O)nc4c3c(C)nn4C3CCCCO3)c2)cc(OC)c1OC (stereo partly drawn) [Compound 401a, (2S)-1-(3-methyl-1-(tetrahydro-2H-pyran-2-yl)-4-((1-(3,4,5-trimethoxyphenyl)-1H-imidazol-4-yl)amino)-1H-pyrazolo[3,4-d]pyrimidin-6-yl)pyrrolidine-2-carboxamide] | < 6.00 |
| COc1cc(-n2cnc(Nc3nc(N4CCC[C@H]4CO)c4ccc(OC(C)C)cc4n3)c2)cc(OC)c1OC [Compound 244b, (S)-(1-(7-isopropoxy-2-((1-(3,4,5-trimethoxyphenyl)-1H-imidazol-4-yl)amino)quinazolin-4-yl)pyrrolidin-2-yl)methanol] | > 7.00 |
| Cn1cnc(Nc2nc(N3CCC[C@@H]3CO)nc3ccoc23)c1 [Compound 3a, (R)-(1-(4-((1-methyl-1H-imidazol-4-yl)amino)furo[3,2-d]pyrimidin-2-yl)pyrrolidin-2-yl)methanol] | < 6.00 |
| C[C@H](Nc1nc(Nc2cn(C)cn2)c2ccccc2n1)c1ccccc1 [Compound 21c, (S)—N4-(1-methyl-1H-imidazol-4-yl)-N2-(1-phenylethyl)quinazoline-2,4-diamine] | > 7.00 |
| COc1cc(-n2cnc(Nc3nc(N4CCC[C@H]4C(N)=O)nc4c3CCCC4)c2)cc(OC)c1OC [Compound 302a, (S)-1-(4-((1-(3,4,5-trimethoxyphenyl)-1H-imidazol-4-yl)amino)-5,6,7,8-tetrahydroquinazolin-2-yl)pyrrolidine-2-carboxamide] | > 7.00 |
| COc1cc(-n2cnc(Nc3nc(N4CCC[C@H]4CO)nn4c(CNCC5CC5)ccc34)c2)cc(OC)c1OC [Compound 120a, (S)-(1-(7-(((cyclopropylmethyl)amino)methyl)-4-((1-(3,4,5-trimethoxyphenyl)-1H-imidazol-4-yl)amino)pyrrolo[2,1-f][1,2,4]triazin-2-yl)pyrrolidin-2-yl)methanol] | > 7.00 |
| COC(=O)c1cc(Nc2cn(-c3cc(OC)c(OC)c(OC)c3)cn2)c2occc2c1 [Compound 411b, methyl 7-((1-(3,4,5-trimethoxyphenyl)-1H-imidazol-4-yl)amino)benzofuran-5-carboxylate] | 6.00 to 7.00 |
| COc1cc(-n2cnc(Nc3nc4c(c(N5CCC[C@@H]5CO)n3)CCC4)c2)cc(OC)c1OC [Compound 272b, (R)-(1-(2-((1-(3,4,5-trimethoxyphenyl)-1H-imidazol-4-yl)amino)-6,7-dihydro-5H-cyclopenta[d]pyrimidin-4-yl)pyrrolidin-2-yl)methanol] | > 7.00 |
| COc1cc(-n2cnc(Nc3nc4c(c(N5CCC[C@H]5CO)n3)CCNC4)c2)cc(OC)c1OC [Compound 182d, (S)-(1-(2-((1-(3,4,5-trimethoxyphenyl)-1H-imidazol-4-yl)amino)-5,6,7,8-tetrahydropyrido[3,4-d]pyrimidin-4-yl)pyrrolidin-2-yl)methanol] | > 7.00 |
| COc1cc(-n2cnc(Nc3nc(-c4cccc(C=O)c4)nc4sc(CO)cc34)c2)cc(OC)c1OC [Compound 109a, 3-(6-(hydroxymethyl)-4-((1-(3,4,5-trimethoxyphenyl)-1H-imidazol-4-yl)amino)thieno[2,3-d]pyrimidin-2-yl)benzaldehyde] | > 7.00 |
| COc1cc(-n2cnc(Nc3nc(N4CCC[C@@H]4CO)nn4cccc34)c2)cc(OC)c1OC [Compound 238a, (R)-(1-(4-((1-(3,4,5-trimethoxyphenyl)-1H-imidazol-4-yl)amino)pyrrolo[2,1-f][1,2,4]triazin-2-yl)pyrrolidin-2-yl)methanol] | > 7.00 |
| COc1cc(-n2cnc(Nc3nc(N4CCC[C@H]4CO)nc4c3c(C)nn4C3CCCCO3)c2)cc(OC)c1OC (stereo partly drawn) [Compound 400c, ((2S)-1-(3-methyl-1-(tetrahydro-2H-pyran-2-yl)-4-((1-(3,4,5-trimethoxyphenyl)-1H-imidazol-4-yl)amino)-1H-pyrazolo[3,4-d]pyrimidin-6-yl)pyrrolidin-2-yl)methanol] | 6.00 to 7.00 |
| COc1cc(-n2cnc(Nc3nc(N4CCC[C@H]4C(N)=O)nc4cc(C#N)ccc34)c2)cc(OC)c1OC [Compound 345c, (S)-1-(7-cyano-4-((1-(3,4,5-trimethoxyphenyl)-1H-imidazol-4-yl)amino)quinazolin-2-yl)pyrrolidine-2-carboxamide] | > 7.00 |
| COc1cc(-n2cnc(Nc3nc(N4CCC[C@H]4CO)nc4c3COC4)c2)cc(OC)c1OC [Compound 281b, (S)-(1-(4-((1-(3,4,5-trimethoxyphenyl)-1H-imidazol-4-yl)amino)-5,7-dihydrofuro[3,4-d]pyrimidin-2-yl)pyrrolidin-2-yl)methanol] | > 7.00 |
| COc1cc(-n2cnc(Nc3ccc4ccccc4c3)c2)cc(OC)c1OC [Compound 178b, N-(naphthalen-2-yl)-1-(3,4,5-trimethoxyphenyl)-1H-imidazol-4-amine] | 6.00 to 7.00 |
| COc1cc(-n2cnc(Nc3nc(N4CC[C@H](O)C4)c4cccn4n3)c2)cc(OC)c1OC [Compound 211b, (S)-1-(2-((1-(3,4,5-trimethoxyphenyl)-1H-imidazol-4-yl)amino)pyrrolo[2,1-f][1,2,4]triazin-4-yl)pyrrolidin-3-ol] | > 7.00 |

| SMILES | pIC50 |
| --- | --- |
| COc1cc(F)c(CC(=O)N2CCN(c3nc(Nc4cn(C)cn4)c4cccn4n3)CC2)c(F)c1 [Compound 51a, 2-(2,6-difluoro-4-methoxyphenyl)-1-(4-(4-((1-methyl-1H-imidazol-4-yl)amino)pyrrolo[2,1-f][1,2,4]triazin-2-yl)piperazin-1-yl)ethanone] | 6.00 to 7.00 |
| COc1cc2nc(Nc3cn(-c4cc(OC)c(OC)c(OC)c4)cn3)nc(N3CCC[C@H]3CO)c2cc1OC [Compound 221c, (S)-(1-(6,7-dimethoxy-2-((1-(3,4,5-trimethoxyphenyl)-1H-imidazol-4-yl)amino)quinazolin-4-yl)pyrrolidin-2-yl)methanol] | > 7.00 |
| COc1cc(-n2cnc(Nc3cc(N4CCC[C@H]4CO)c4ccccc4n3)c2)cc(OC)c1OC [Compound 368a, (S)-(1-(2-(1-(3,4,5-trimethoxyphenyl)-1H-imidazol-4-ylamino)quinolin-4-yl)pyrrolidin-2-yl)methanol] | 6.00 to 7.00 |
| c1ccc(-n2cnc(Nc3nc(N4CCCC4c4ccccn4)nc4ccoc34)c2)cc1 (stereo not shown) [Compound 33a, N-(1-phenyl-1H-imidazol-4-yl)-2-(2-(pyridin-2-yl)pyrrolidin-1-yl)furo[3,2-d]pyrimidin-4-amine] | > 7.00 |
| COc1cc(-n2cnc(Nc3nc(N4CCC[C@H]4CO)nc4cnccc34)c2)cc(OC)c1OC [Compound 378c, (S)-(1-(4-((1-(3,4,5-trimethoxyphenyl)-1H-imidazol-4-yl)amino)pyrido[3,4-d]pyrimidin-2-yl)pyrrolidin-2-yl)methanol] | > 7.00 |
| COc1cc(-n2cnc(Nc3nc(N4CCC[C@@H]4CO)c4ccsc4n3)c2)cc(OC)c1OC [Compound 309b, (R)-(1-(2-((1-(3,4,5-trimethoxyphenyl)-1H-imidazol-4-yl)amino)thieno[2,3-d]pyrimidin-4-yl)pyrrolidin-2-yl)methanol] | > 7.00 |
| OC[C@@H]1CCCN1c1nc(Nc2cn(-c3cn(C4CCC4)cn3)cn2)c2cccn2n1 [Compound 450d, (S)-(1-(4-((1′-cyclobutyl-1′H-[1,4′-biimidazol]-4-yl)amino)pyrrolo[2,1-f][1,2,4]triazin-2-yl)pyrrolidin-2-yl)methanol] | 6.00 to 7.00 |
| COc1cncc(-n2cnc(Nc3nc(N4CCC[C@H]4CO)c4cccn4n3)c2)c1 [Compound 228d, (S)-(1-(2-((1-(5-methoxypyridin-3-yl)-1H-imidazol-4-yl)amino)pyrrolo[2,1-f][1,2,4]triazin-4-yl)pyrrolidin-2-yl)methanol] | 6.00 to 7.00 |
| COc1cc(-n2cnc(Nc3nc(N4CCC[C@H]4C(N)=O)nn4cccc34)c2)cc(OC)c1OC [Compound 91a, (S)-1-(4-(1-(3,4,5-trimethoxyphenyl)-1H-imidazol-4-ylamino)pyrrolo[1,2-f][1,2,4]triazin-2-yl)pyrrolidine-2-carboxamide] | > 7.00 |
| COc1cc(-n2cnc(Nc3nc4c(c(N5CCC[C@H]5CO)n3)CCN(Cc3cccnc3)C4)c2)cc(OC)c1OC [Compound 216a, (S)-(1-(7-(pyridin-3-ylmethyl)-2-((1-(3,4,5-trimethoxyphenyl)-1H-imidazol-4-yl)amino)-5,6,7,8-tetrahydropyrido[3,4-d]pyrimidin-4-yl)pyrrolidin-2-yl)methanol] | > 7.00 |
| COc1cc(-n2cnc(Nc3nc(N4CCC[C@H]4CO)c4c(C)nn(CC5CC5)c4n3)c2)cc(OC)c1OC [Compound 463c, (S)-(1-(1-(cyclopropylmethyl)-3-methyl-6-((1-(3,4,5-trimethoxyphenyl)-1H-imidazol-4-yl)amino)-1H-pyrazolo[3,4-d]pyrimidin-4-yl)pyrrolidin-2-yl)methanol] | > 7.00 |
| COc1c(C(C)=O)ccc(-n2cnc(Nc3nc(N4CCC[C@H]4CO)nn4cccc34)c2)c1OC [Compound 212g, (S)-1-(4-(4-((2-(2-(hydroxymethyl)pyrrolidin-1-yl)pyrrolo[2,1-f][1,2,4]triazin-4-yl)amino)-1H-imidazol-1-yl)-2,3-dimethoxyphenyl)ethanone] | > 7.00 |
| COc1cc(-n2cnc(Nc3nc(N4CCC[C@H]4CO)nc4cc(Br)ccc34)c2)cc(OC)c1OC [Compound 344c, (S)-(1-(7-bromo-4-((1-(3,4,5-trimethoxyphenyl)-1H-imidazol-4-yl)amino)quinazolin-2-yl)pyrrolidin-2-yl)methanol] | > 7.00 |
| COc1cc(-n2cnc(Nc3nc(N4CCC[C@H]4C(N)=O)nc4cc(CN5CCCCC5)oc34)c2)cc(OC)c1OC [Compound 315f, (S)-1-(6-(piperidin-1-ylmethyl)-4-((1-(3,4,5-trimethoxyphenyl)-1H-imidazol-4-yl)amino)furo[3,2-d]pyrimidin-2-yl)pyrrolidine-2-carboxamide] | > 7.00 |
| Cc1cc(Cl)cc(-c2cnc(Nc3nc(N4CCC[C@H]4CO)nn4cccc34)s2)c1 [Compound 475c, (S)-(1-(4-((5-(3-chloro-5-methylphenyl)thiazol-2-yl)amino)pyrrolo[2,1-f][1,2,4]triazin-2-yl)pyrrolidin-2-yl)methanol] | < 6.00 |
